Experimental data as given in patent US20020042393A1, “Excipient” (priority 1998, published 2002).

How the values were obtained:
Format in all cases: physicochemical
Apparent specific volume = conditions: excipient powder; listed as B
From the text: The whole of 10 g of trehalose powder was gently poured into a 100-ml measuring cylinder without making an impact (in this case, a cylinder having an outside diameter smaller than the inside diameter of the measuring cylinder was placed in the measuring cylinder, and it was slowly lifted after pouring the trehalose), and the apparent specific volume was expressed as a value obtained by dividing the read volume by the weight of the trehalose.

[1] = Angle of repose (Sugiwara's instrument); conditions: excipient powder; listed as B
From the text: Measured by means of a Sugiwara's instrument for measuring angle of repose (Yakuzaigaku 27, p. 260, 1965).

[2] = Water content (Karl Fisher) of tablets before and after storage; conditions: tablets compressed at 500 kg/cm^2; 0 day; listed as B
Procedure: Determined as a value obtained by measuring about 0.1 g of trehalose and determining its water content by the Karl Fisher method.
One hundred grams of commercial “Trehaose” (available from Hayashibara Biochemical Laboratories, Inc.) was dissolved in water to a concentration of about 35 wt %, and the resulting solution was concentrated under reduced pressure with heating at 60° C. so as to have a concentration of about 75 wt %, and allowed to stand at room temperature to precipitate crystals, which were washed with 50 ml of water. Glucose was removed by carrying out the above purification procedure once or twice, to increase the trehalose purity. Trehalose A was obtained by carrying out the purification procedure twice to obtain crystals, drying the crystals, grinding the dried crystals with a bantam mill (number of revolutions 15,000 rpm, feed rate 5 kg/hr, and screen opening 2.0 mmφ), and then sifting the ground crystals through a […]. Trehalose B was obtained by carrying out the purification procedure once to obtain crystals, drying the crystals, grinding the dried crystals with a bantam mill (number of revolutions 10,000 rpm, feed rate 5 kg/hr, and screen opening 2.00 mmφ), and then sifting the ground crystals through a 350-μm screen. Trehalose C was obtained by carrying out the purification procedure once to obtain crystals, drying the crystals, grinding the dried crystals with a bantam mill (number of revolutions 8,000 rpm, feed rate 5 kg/hr, and screen opening 2.0 mmφ), and then sifting the ground crystals through a 350-μm screen. […] Each of trehaloses A to C was compressed into tablets at a compression pressure of 500 kg/cm^2, and the tablet hardness immediately after the compression and the tablet hardness after standing for 3 days in an atmosphere of 40° C. and 75% RH after the compression were compared.
“Trehaose” (available from Hayashibara Bioscience Laboratories Co., Ltd.) was purified once by the method described in Example 1 to obtain crystals, which were dried, ground with a bantam mill (number of revolutions 12,000 rpm, feed rate 5 kg/hr, and screen opening 2.0 mmφ) and then dried at 105° C. for 4 hours to obtain trehalose anhydrous crystals. These crystals were compressed into tablets at a compression pressure of 500 kg/cm^2, and the tablet hardnesses of the tablets were compared in the same manner as in Example 1.

[3] = Average particle size (sieving, 50% cumulative weight); conditions: excipient powder; listed as B
Procedure: Five grams of trehalose was sifted through screens having screen openings of 500 μm, 300 μm and 250 μm, respectively, and then sifted with Air Jet Sieve by using screens having screen openings of 150 μm, 75 μm, 45 μm, 38 μm and 32 μm, respectively. The oversize particle weight percentage [%] was calculated for each screen, and the average particle size is expressed as a particle size corresponding to a cumulative weight percentage of 50%.

[4] = Disintegration time according to Japanese Pharmacopoeia; conditions: listed as B
Procedure: The disintegration time of each of six molded products was measured by the use of ion-exchanged water according to the disintegration time measuring method prescribed in the 13th revised Japanese Pharmacopoeia, and the average of measured values was calculated.

[5] = Tablet hardness (Schleuniger hardness meter); conditions: listed as B
[6] = Change in whiteness of excipient mixed with drug at 40° C. and 75% RH (reactivity); conditions: listed as B
Procedure: (§1) For powder of trehalose or a pharmaceutical composition containing trehalose, values of L, a and b were measured with a color analyzer (TC-1800MKII, mfd. by Tokyo Denshoku Co., Ltd.), and the whiteness of the trehalose or pharmaceutical composition was calculated by the following equation: […]
One gram of each of the trehaloses obtained in Example 1 and 1 g of isoniazid were mixed and then allowed to stand in an atmosphere of 40° C. and 75% RH, and the change in whiteness of the trehalose was observed. On the other hand, 1 g of each of the trehaloses obtained in Example 1 and 1 g of aminophyline were mixed and then allowed to stand in an atmosphere of 40° C. and 75% RH, and the change in whiteness of the trehalose was observed.
One gram of 100-mesh lactose (available from De Melkindustrie Veghel bv) or 1 g of Mannit S (available from Tohwa Kasei Co., Ltd.) and 1 g of aminophyline were mixed and then allowed to stand in an atmosphere of 40° C. and 75% RH, and the change in whiteness of the lactose or Mannit S was observed.
As a starting material. […]

[7] = Colour change of molded product stored at 40° C. for 3 months; conditions: Example 9 process molded product in glass bottle
Procedure: This molded product and the rapidly disintegrable molded product obtained in Example 9 by using the trehalose B were placed in separate glass bottles, respectively, and stored at 40° C. for 3 months.

[8] = Whiteness of powder (color analyzer); conditions: excipient powder; listed as B
Procedure: as §1

[9] = Proportion of particles of 75 μm or more (Air Jet Sieve); conditions: excipient powder; listed as B
Procedure: Five grams of trehalose was weighed onto a screen having a screen opening of 75 μm, and sifted with Air Jet Sieve (Model 200LS, mfd. by ALPINE) for 5 minutes, and the weight percentage of the weight of particles remaining on the screen based on the total weight of particles was calculated as the proportion of particles of 75 μm or more.

[10] = Example 10: as Example 9 but molded at 60 kg/cm^2

Apparent specific volume (Apparent specific volume): 2.2 cm^3/g | Angle of repose [1]: 42 ° | Water content [2]: 9.8% | Average particle size [3]: 72 μm | Disintegration time according to Japanese Pharmacopoeia ([4]; Example 8: molded product of trehalose only, 30 kg/cm^2): 12 s | Disintegration time according to Japanese Pharmacopoeia [4, 10]: 45 s | Disintegration time according to Japanese Pharmacopoeia ([4]; process of Example 9: 950 g excipient + 50 g phenylpropanolamine hydrochloride, 30 kg/cm^2): 14 s | Tablet hardness ([5]; Example 8: molded product of trehalose only, molded at 30 kg/cm^2, dried overnight at 40° C.): 6.6 kg | Tablet hardness [5, 10]: 9.4 kg | Tablet hardness ([5]; process of Example 9: 950 g excipient + 50 g phenylpropanolamine hydrochloride, molded at 30 kg/cm^2): 6.5 kg | Tablet hardness ([5]; tablets compressed at 500 kg/cm^2, 0 day (immediately after compression)): 2.5 kgf | Tablet hardness ([5]; tablets compressed at 500 kg/cm^2, 3 days at 40° C. and 75% RH): 2.4 kgf | Whiteness ([6]; 1 g excipient + 1 g aminophyline, 0 day): 99% | Whiteness ([6]; 1 g excipient + 1 g aminophyline, 40° C. and 75% RH, 1 month): 97% | Whiteness ([6]; 1 g excipient + 1 g isoniazid, 0 day): 98% | Whiteness ([6]; 1 g excipient + 1 g isoniazid, 40° C. and 75% RH, 1 month): 96% | Change in color of molded product [7]: somewhat yellowed | Whiteness [8]: 97% | Proportion of particles of 75 μm or more [9]: 46%
Compound: OC[C@H]1O[C@H](O[C@H]2O[C@H](CO)[C@@H](O)[C@H](O)[C@H]2O)[C@H](O)[C@@H](O)[C@@H]1O [Trehalose B, trehalose]
